Test results published in patent publication US8481544B2, “Antibacterial compositions” (Biota Europe Limited, priority 2006, dated 2013).
Converted amounts (≈) assume the structure as drawn.

Experiments:
[1] = system: Enterococcus faecalis ATCC 29212; assay: MIC against Enterococcus faecalis ATCC 29212; format: cell-based; settings: ATCC29212; Enterococcus faecalis ATCC 29212; read-out: MICs against Enterococcus faecalis, Activity
Method in brief: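 MIC measured by broth microdilution or agar dilution following CLSI guidelines (M7-A7 for aerobes, M11-A6 for anaerobes).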

[2] = system: Staphylococcus aureus; assay: mouse Staphylococcus aureus septicaemia model of infection, survival at day 7; format: in vivo
Description: Some of the Example compounds were also tested for activity in a mouse Staphylococcus aureus septicaemia model of infection.

[3] = system: Helicobacter pylori DJF 11; assay: MIC against Helicobacter pylori DJF 11; format: cell-based; settings: DJF11, Isolate ID DJF 11
[4] = system: Streptococcus pneumoniae SP 051430; assay: MIC against Streptococcus pneumoniae SP 051430; format: cell-based; settings: SP051430, Isolate ID SP 051430
[5] = system: Staphylococcus aureus ATCC 29213; assay: MIC against Staphylococcus aureus ATCC 29213; format: cell-based; settings: Staphylococcus aureus, ATCC29213; Isolate ID ATCC 29213; read-out: MIC (Activity) against Staphylococcus aureus
[6] = system: Staphylococcus aureus VRS3; assay: MIC against Staphylococcus aureus VRS3; format: cell-based; settings: Isolate ID VRS3
[7] = system: Enterococcus faecalis (VRE) ATCC 51299; assay: MIC against Enterococcus faecalis (VRE) ATCC 51299; format: cell-based; settings: Enterococcus faecalis; Isolate ID ATCC 51299; read-out: MIC (Activity) against Enterococcus faecalis (VRE)
[8] = system: Streptococcus pneumoniae (MacR) SP 051431; assay: MIC against Streptococcus pneumoniae (MacR) SP 051431; format: cell-based; settings: Isolate ID SP 051431
[9] = system: Moraxella catarrhalis ATCC 25240; assay: MIC against Moraxella catarrhalis ATCC 25240; format: cell-based; settings: Moraxella catarrhalis, ATCC25240; Isolate ID ATCC 25240; read-out: MIC (Activity) against Moraxella catarrhalis
[10] = system: Listeria monocytogenes ATCC 19115; assay: MIC against Listeria monocytogenes ATCC 19115; format: cell-based; settings: ATCC19115, Isolate ID ATCC 19115
[11] = system: Legionella pneumophila LP NCTC 11192; assay: microbe, parasite or virus in culture; format: cell-based; settings: NCTC11192, read-out: MIC (Activity) against Legionella pneumophila
[12] = system: Streptococcus mutans ATCC 35668; assay: MIC against Streptococcus mutans ATCC 35668; format: cell-based; settings: Streptococcus mutans, ATCC35668; Isolate ID ATCC 35668; read-out: MIC (Activity) against Streptococcus mutans
[13] = system: Enterococcus faecium (VSE) ATCC 19434; assay: MIC against Enterococcus faecium (VSE) ATCC 19434; format: cell-based; settings: Enterococcus faecium, ATCC19434; Isolate ID ATCC 19434; read-out: MIC (Activity) against Enterococcus faecium (VSE)
[14] = system: Clostridium difficile NQS 84; assay: MIC against Clostridium difficile NQS 84; format: cell-based; settings: Clostridioides difficile, NQS84; Isolate ID NQS 84
Excerpt: Institute. Methods for Dilution Antimicrobial Susceptibility Tests for Bacteria That Grow Aerobically; Approved Standard—Seventh Edition. Document M7-A7. CLSI, Wayne, Pa., 2006; Clinical Laboratories and Standards Institute. Methods for Antimicrobial Susceptibility Testing of Anaerobic Bacteria; Approved Standard—Sixth Edition. Document M11-A6. CLSI, Wayne, Pa., 2004).

[15] = system: Streptococcus pneumoniae (FQR) SP 26054; assay: MIC against Streptococcus pneumoniae (FQR) SP 26054; format: cell-based; settings: Isolate ID SP 26054
[16] = system: Mycoplasma hominis MH NCTC 10111; assay: MIC against Mycoplasma hominis MH NCTC 10111; format: cell-based; settings: Metamycoplasma hominis, NCTC10111; Isolate ID MH NCTC 10111
[17] = system: Staphylococcus aureus VRS2; assay: MIC against Staphylococcus aureus VRS2; format: cell-based; settings: Isolate ID VRS2
[18] = system: Staphylococcus haemolyticus ATCC 29970; assay: MIC against Staphylococcus haemolyticus ATCC 29970; format: cell-based; settings: Staphylococcus haemolyticus, ATCC29970; Isolate ID ATCC 29970; read-out: MIC (Activity) against Staphylococcus haemolyticus
[19] = system: Lactococcus lactis ATCC 11454; assay: MIC against Lactococcus lactis ATCC 11454; format: cell-based; settings: ATCC11454, Isolate ID ATCC 11454
[20] = system: Chlamydia trachomatis T71214; assay: MIC against Chlamydia trachomatis T71214; format: cell-based; settings: Isolate ID T71214
[21] = system: Streptococcus pneumoniae ATCC 700671; assay: MIC against Streptococcus pneumoniae ATCC 700671; format: cell-based; settings: ATCC700671, Isolate ID ATCC 700671
[22] = system: Clostridium perfringens IV306001; assay: microbe, parasite or virus in culture; format: cell-based; settings: IV306001, read-out: MIC (Activity) against Clostridium perfringens
[23] = system: Streptococcus pneumoniae (FQR) SP 25058; assay: MIC against Streptococcus pneumoniae (FQR) SP 25058; format: cell-based; settings: Isolate ID SP 25058
[24] = system: Chlamydophila pneumoniae IOL207; assay: MIC against Chlamydophila pneumoniae IOL207; format: cell-based; settings: Chlamydia pneumoniae; Isolate ID IOL207
[25] = system: Mycoplasma pneumoniae MP 9; assay: MIC against Mycoplasma pneumoniae MP 9; format: cell-based; settings: MP9, Isolate ID MP 9
[26] = system: Enterococcus faecium (VRE) ATCC 700221; assay: MIC against Enterococcus faecium (VRE) ATCC 700221; format: cell-based; settings: Enterococcus faecium; Isolate ID ATCC 700221; read-out: MIC (Activity) against Enterococcus faecium (VRE)
[27] = system: Bacteroides fragilis ATCC 25285; assay: MIC against Bacteroides fragilis ATCC 25285; format: cell-based; settings: ATCC25285, Isolate ID ATCC 25285
[28] = system: Mycoplasma pneumoniae MP NCTC 10119; assay: MIC against Mycoplasma pneumoniae MP NCTC 10119; format: cell-based; settings: NCTC10119, Isolate ID MP NCTC 10119
[29] = system: Staphylococcus aureus VRS1; assay: MIC against Staphylococcus aureus VRS1; format: cell-based; settings: Isolate ID VRS1
[30] = system: Mycoplasma hominis MH 10; assay: MIC against Mycoplasma hominis MH 10; format: cell-based; settings: Metamycoplasma hominis, MH10; Isolate ID MH 10
[31] = system: Staphylococcus epidermidis ATCC 12228; assay: MIC against Staphylococcus epidermidis ATCC 12228; format: cell-based; settings: Staphylococcus epidermidis, ATCC12228; Isolate ID ATCC 12228; read-out: MIC (Activity) against Staphylococcus epidermidis
[32] = system: Propionibacterium acnes ATCC 11821; assay: MIC against Propionibacterium acnes ATCC 11821; format: cell-based; settings: Cutibacterium acnes, ATCC11821; Isolate ID ATCC 11821
[33] = system: Streptococcus pyogenes ATCC 51339; assay: MIC against Streptococcus pyogenes ATCC 51339; format: cell-based; settings: Streptococcus pyogenes, ATCC51339; Isolate ID ATCC 51339; read-out: MIC (Activity) against Streptococcus pyogenes
[34] = system: Escherichia coli N43; assay: MIC against Escherichia coli N43; format: cell-based; settings: Isolate ID N43
[35] = system: Haemophilus influenzae ATCC 49247; assay: MIC against Haemophilus influenzae ATCC 49247; format: cell-based; settings: ATCC49247, Isolate ID ATCC 49247
[36] = system: Neisseria gonorrhoeae NG ATCC 49226; assay: MIC against Neisseria gonorrhoeae NG ATCC 49226; format: cell-based; settings: ATCC49226, Isolate ID NG ATCC 49226
[37] = 2 × 30 mg/kg intraperitoneal, 1 and 6 hours after inoculation

CCNC(=O)Nc1nc2cc(-c3cccnc3)cc(Br)c2s1 [Example 3, 1-(7-Bromo-5-pyridin-3-yl-benzothiazol-2-yl)-3-ethyl-urea]
melting point: 345 °C | MIC [1]: 0.25 to 1 µg/mL (≈ 0.663 to 2.65 µM)

CCNC(=O)Nc1nc2cc(-c3cccnc3)cc(-c3cccnc3)c2s1 [Example 4, 1-(5,7-Di-pyridin-3-yl-benzothiazol-2-yl)-3-ethyl-urea]
Percent survival ([2]; 2 × 100 mg/kg intraperitoneal, 1 and 6 hours after inoculation): 100 | MIC [1]: 0.25 to 1 µg/mL (≈ 0.666 to 2.66 µM)

CCNC(=O)Nc1nc2cc(-c3cccnc3)cc(-c3cccc(Cl)n3)c2s1 [Example 88, 1-[7-(6-Chloro-pyridin-2-yl)-5-pyridin-3-yl-benzothiazol-2-yl]-3-ethyl-urea]
melting point: 249.9 °C | MIC [1]: < 0.25 µg/mL

CCNC(=O)Nc1nc2cc(-c3cccnc3)cc(-c3cccc(C(F)(F)F)n3)c2s1 [Example 89, 1-Ethyl-3-[5-pyridin-3-yl-7-(6-trifluoromethyl-pyridin-2-yl)-benzothiazol-2-yl]-urea]
melting point: 256.7 °C | MIC [1]: < 0.25 µg/mL

CCNC(=O)Nc1nc2cc(-c3cccnc3)cc(-c3ccc[nH]3)c2s1 [Example 90, 1-Ethyl-3-[5-pyridin-3-yl-7-(1H-pyrrol-2-yl)-benzothiazol-2-yl]-urea]
melting point: 220 °C | MIC [1]: 0.25 to 1 µg/mL (≈ 0.688 to 2.75 µM)

CCNC(=O)Nc1nc2cc(-c3cccnc3)cc(-c3ncccc3F)c2s1 [Example 91, 1-Ethyl-3-[7-(3-fluoro-pyridin-2-yl)-5-pyridin-3-yl-benzothiazol-2-yl]-urea]
Percent survival [2, 37]: 100 | MIC [1]: < 0.25 µg/mL

CCNC(=O)Nc1nc2cc(-c3cccnc3)cc(-c3ccccn3)c2s1 [Example 163, 1-Ethyl-3-(5-pyridin-3-yl-7-pyridin-2-yl-benzothiazol-2-yl)-urea]
Percent survival ([2]; 1 × 10 mg/kg intraperitoneal, 1 hour after inoculation): 60 | Percent survival ([2]; 1 × 30 mg/kg intraperitoneal, 1 hour after inoculation): 100 | Percent survival [2, 37]: 100 | MIC [3]: < 0.25 µg/mL | MIC [4]: < 0.25 µg/mL | MIC [5]: 0.25 to 1 µg/mL (≈ 0.666 to 2.66 µM) | MIC [6]: < 0.25 µg/mL | MIC [7]: < 0.25 µg/mL | MIC [8]: < 0.25 µg/mL | MIC [9]: < 0.25 µg/mL | MIC [10]: < 0.25 µg/mL | MIC [11]: 0.25 to 1 µg/mL (≈ 0.666 to 2.66 µM) | MIC [12]: < 0.25 µg/mL | MIC [13]: 0.25 to 1 µg/mL (≈ 0.666 to 2.66 µM) | MIC [14]: 0.25 to 1 µg/mL (≈ 0.666 to 2.66 µM) | MIC [1]: < 0.25 µg/mL | MIC [15]: < 0.25 µg/mL | MIC [16]: 0.25 to 1 µg/mL (≈ 0.666 to 2.66 µM) | MIC [17]: < 0.25 µg/mL | MIC [18]: < 0.25 µg/mL | MIC [19]: < 0.25 µg/mL | MIC [20]: 0.25 to 1 µg/mL (≈ 0.666 to 2.66 µM) | MIC [21]: < 0.25 µg/mL | MIC [22]: 0.25 to 1 µg/mL (≈ 0.666 to 2.66 µM) | MIC [23]: < 0.25 µg/mL | MIC [24]: < 0.25 µg/mL | MIC [25]: 0.25 to 1 µg/mL (≈ 0.666 to 2.66 µM) | MIC [26]: < 0.25 µg/mL | MIC [27]: 2 to 16 µg/mL (≈ 5.33 to 42.6 µM) | MIC [28]: 0.25 to 1 µg/mL (≈ 0.666 to 2.66 µM) | MIC [29]: < 0.25 µg/mL | MIC [30]: 0.25 to 1 µg/mL (≈ 0.666 to 2.66 µM) | MIC [31]: < 0.25 µg/mL | MIC [32]: < 0.25 µg/mL | MIC [33]: 0.25 to 1 µg/mL (≈ 0.666 to 2.66 µM) | MIC [34]: 2 to 16 µg/mL (≈ 5.33 to 42.6 µM) | MIC [35]: 2 to 16 µg/mL (≈ 5.33 to 42.6 µM) | MIC [36]: 0.25 to 1 µg/mL (≈ 0.666 to 2.66 µM)

CCNC(=O)Nc1nc2cc(-c3cccnc3)cc(-c3cccc(OC)n3)c2s1 [Example 167, 1-Ethyl-3-[7-(6-methoxy-pyridin-2-yl)-5-pyridin-3-yl-benzothiazol-2-yl]-urea]
melting point: 300.1 °C | MIC [1]: < 0.25 µg/mL

CCOC(=O)Nc1nc2cc(-c3cccnc3)cc(-c3ccccn3)c2s1 [Example 174, (5-Pyridin-3-yl-7-pyridin-2-yl-benzothiazol-2-yl)-carbamic acid ethyl ester]
melting point: 235 °C | MIC [1]: < 0.25 µg/mL

CCNC(=O)Nc1nc2cc(-c3cccnc3)cc(-c3ccc(C)cn3)c2s1 [Example 175, 1-Ethyl-3-[7-(5-methyl-pyridin-2-yl)-5-pyridin-3-yl-benzothiazol-2-yl]-urea]
melting point: 231 °C | MIC [1]: < 0.25 µg/mL
